By IC50 is commonly meant the concentration that gives 50% inhibition.

One compound from ChEMBL document CHEMBL1150228, “Synthesis of a novel lysophosphatidylcholine” (J Nat Prod, 2001) can be followed below.

The target of this assay is T1, 3-hydroxy-3-methylglutaryl-coenzyme A reductase (Homo sapiens, UniProt P04035).
T1 sequence (P04035 whole entry): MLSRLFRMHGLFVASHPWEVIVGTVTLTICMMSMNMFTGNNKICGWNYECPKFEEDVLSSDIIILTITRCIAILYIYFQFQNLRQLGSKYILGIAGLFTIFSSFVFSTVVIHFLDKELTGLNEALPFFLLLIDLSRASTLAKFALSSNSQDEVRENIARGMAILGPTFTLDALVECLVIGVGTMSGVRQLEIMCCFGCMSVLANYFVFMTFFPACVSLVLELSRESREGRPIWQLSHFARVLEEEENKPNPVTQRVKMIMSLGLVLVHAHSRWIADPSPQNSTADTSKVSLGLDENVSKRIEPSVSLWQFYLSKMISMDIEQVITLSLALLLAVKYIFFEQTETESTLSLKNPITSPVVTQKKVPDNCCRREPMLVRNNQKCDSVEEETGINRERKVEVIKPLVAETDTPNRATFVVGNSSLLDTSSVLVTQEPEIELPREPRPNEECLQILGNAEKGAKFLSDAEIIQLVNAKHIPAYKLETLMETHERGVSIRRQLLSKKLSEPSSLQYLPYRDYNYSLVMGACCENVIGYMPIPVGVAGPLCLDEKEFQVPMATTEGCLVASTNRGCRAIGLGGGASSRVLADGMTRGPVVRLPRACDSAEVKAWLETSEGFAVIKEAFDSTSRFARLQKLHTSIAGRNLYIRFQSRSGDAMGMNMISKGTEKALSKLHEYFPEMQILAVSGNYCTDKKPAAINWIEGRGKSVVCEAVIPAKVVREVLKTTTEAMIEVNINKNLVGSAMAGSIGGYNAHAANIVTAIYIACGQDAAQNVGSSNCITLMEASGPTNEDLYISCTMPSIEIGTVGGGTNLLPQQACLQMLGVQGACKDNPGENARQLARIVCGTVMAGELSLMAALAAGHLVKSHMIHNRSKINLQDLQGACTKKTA
As to the kind of experiment: Inhibition of HMG CoA reductase.

`CCCCCC[C@@H]1C[C@@H]1CCCCCCCCCC(=O)OCC(O)COP(=O)([O-])OCC[N+](C)(C)C` (relative stereo) [LYSOPHOSPHATIDYLCHOLINE] showed an IC50 of 112 µM.
